The pIC50 is −log10 of the IC50, conventionally taken in molar units.

Each structure is given as a SMILES string. pIC50: −log10 of the molar value. Where two headings read alike, the source gives them in different places.

Consider 20 molecules from patent US20110251175A1, “Stigmine Conjugates for Substance Use Disorders” (priority 2008, published 2011).

The target in one series is BuChE (Homo sapiens, UniProt P06276). Briefly: In vitro screening assay, BuChE inhibition. In kind it is biochemical. An excerpt: An in vitro screening assay with various conjugates was completed according to the methods described in Ellman G L et al., Biochem Pharmacol., 7:88-95 (1961) and in Nadarajah B, J. Anal. Toxicol., 16:192-193 (1992), both of which are herein incorporated by reference in their entireties. The assay method was completed according to the following: […]

Series [1] concerns male CD IGS (Sprague Dawley derived) rats. Briefly: Dose range for cholinergic effects / max tolerated dose. The settings on record: for TIMTD/ MED: ratio of max tolerated dose to hypothermia MED, rats s.c. As to the method:
The dose range and time course for cholinergic effects of the compounds of the invention was determined as described below. • Subjects: Two hundred eight male CD IGS (Sprague Dawley derived) rats were received at 126-150 grams and maintained four per cage on a regular light/dark cycle (lights on 0600-1800) with ad libitum food and water for about 1 week before commencement of experimentation. • Apparatus: Injections were made subcutaneously (s.c.) with a 25-gauge needle on a 1-mL tuberculin syringe. Observations were made in a 5½×10-inch polycarbonate rat housing cage. Temperature was taken with a rat rectal probe on a Model BAT-12 electronic thermometer. • Compound Preparation: Test compounds were dissolved for example, in 0.9% saline. […] Injection volumes were 1 mL/kg, if the test compound was sufficiently soluble. If less soluble, maximum injection volume were 5 mL/kg.
Test Compounds were dosed at 1, 3, 10, 30, and 100 mg/kg • Procedure: The rats were brought to the test room in the home cage. Baseline temperatures were measured just before injection. After injection s.c., the rat was placed in the observation cage. At 0.5, 1, 2, and 4 hours after injection, it was observed briefly for gross signs; salivation was scored as absent, clearly present, or copious; and rectal temperature was taken. In observation for gross signs, special attention was paid to fasciculation (muscle twitch), tremor/ataxia, and abnormal gait. The experiment was designed to allow assessment of one rat per time point per minute. Salivation score and temperature were determined within this constraint, but only the most salient of gross signs were noted. After the 4-hour observation point, or sooner if signs of distress were observed, the rat was euthanized by CO2 inhalation. • Data Analysis: Gross signs, salivation score, and temperature at each time point were tabulated for inspection. This is a combination of within-subject design for control and between-subjects design for dose effect. That is, the effect of the compound was measured against the reading taken immediately before injection, and the difference between doses of the compound was measured between groups of three rats.

The test system is the same in series [2]. Briefly: Measurement of hypothermia (marker of CNS penetration for AChE inhibitors). In kind it is in vivo. The settings on record: Rattus norvegicus, sc, read-out: Hypothermia MED (mg/kg).
Description: The induction of hypothermia was determined for compounds of the invention according to the methods described in Freedman, et al., European Journal of Pharmacology, 187 (1990), 193-199, which is incorporated by reference herein. Hypothermia is a marker of CNS penetration for AChE inhibitors.
The dose range and time course for cholinergic effects of the compounds of the invention was determined as described below. • Subjects: Two hundred eight male CD IGS (Sprague Dawley derived) rats were received at 126-150 grams and maintained four per cage on a regular light/dark cycle (lights on 0600-1800) with ad libitum food and water for about 1 week before commencement of experimentation. • Apparatus: Injections were made subcutaneously (s.c.) with a 25-gauge needle on a 1-mL tuberculin syringe. Observations were made in a 5½×10-inch polycarbonate rat housing cage. […]
Test Compounds were dosed at 1, 3, 10, 30, and 100 mg/kg • Procedure: The rats were brought to the test room in the home cage. Baseline temperatures were measured just before injection. […] At 0.5, 1, 2, and 4 hours after injection, it was observed briefly for gross signs; salivation was scored as absent, clearly present, or copious; and rectal temperature was taken. […] Salivation score and temperature were determined within this constraint, but only the most salient of gross signs were noted. […]
Another series has as its system rats. Briefly: Methamphetamine drug discrimination test.
The target in series [3] is T1, human recombinant acetylcholinesterase (Homo sapiens, UniProt P22303).
T1 construct: purchased Sigma Chemical Co (St. Louis, Mo.) C1682
Description: biochemical. The settings on record: human recombinant AChE, 25° C., 30 minutes preincubation, Dixon plot.

For series [4], the target named is T2, AChE (Human recombinant HEK-293 cells) (Homo sapiens, UniProt P22303).
T2 construct: host or cells: HEK-293 cells (expression host as printed)
In kind it is biochemical.

Sequence of BuChE (P06276 29-602): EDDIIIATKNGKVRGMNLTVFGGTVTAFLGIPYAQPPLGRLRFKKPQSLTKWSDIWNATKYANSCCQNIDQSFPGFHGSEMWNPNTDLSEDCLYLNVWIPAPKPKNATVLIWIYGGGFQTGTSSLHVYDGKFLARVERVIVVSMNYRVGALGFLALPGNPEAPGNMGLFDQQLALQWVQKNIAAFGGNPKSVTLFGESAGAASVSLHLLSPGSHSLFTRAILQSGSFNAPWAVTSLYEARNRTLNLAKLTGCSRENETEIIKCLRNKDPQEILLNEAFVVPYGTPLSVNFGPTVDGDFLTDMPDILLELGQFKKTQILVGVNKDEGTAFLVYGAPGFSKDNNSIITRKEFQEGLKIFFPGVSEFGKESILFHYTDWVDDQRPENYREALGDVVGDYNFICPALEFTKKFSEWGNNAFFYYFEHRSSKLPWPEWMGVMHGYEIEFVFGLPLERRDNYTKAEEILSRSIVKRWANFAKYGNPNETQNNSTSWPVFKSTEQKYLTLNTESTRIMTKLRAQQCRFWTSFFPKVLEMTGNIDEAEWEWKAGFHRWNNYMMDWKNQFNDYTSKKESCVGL
T1 sequence (P22303 32-614): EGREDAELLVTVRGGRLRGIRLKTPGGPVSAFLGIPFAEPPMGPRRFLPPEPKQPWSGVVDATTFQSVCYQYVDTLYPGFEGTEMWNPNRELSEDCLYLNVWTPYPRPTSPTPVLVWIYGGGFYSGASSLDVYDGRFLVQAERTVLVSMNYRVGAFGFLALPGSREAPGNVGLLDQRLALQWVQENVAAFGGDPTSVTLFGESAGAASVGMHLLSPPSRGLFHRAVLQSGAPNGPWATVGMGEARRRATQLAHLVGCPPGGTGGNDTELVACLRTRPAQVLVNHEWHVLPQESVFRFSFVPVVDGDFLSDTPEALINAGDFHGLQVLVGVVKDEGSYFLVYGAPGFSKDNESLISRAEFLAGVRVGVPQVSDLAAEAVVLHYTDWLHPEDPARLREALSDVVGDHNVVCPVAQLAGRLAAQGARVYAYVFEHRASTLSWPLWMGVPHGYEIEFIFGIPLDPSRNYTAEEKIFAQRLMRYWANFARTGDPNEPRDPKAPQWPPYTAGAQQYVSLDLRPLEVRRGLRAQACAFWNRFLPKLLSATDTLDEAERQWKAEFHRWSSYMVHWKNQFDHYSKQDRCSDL
T2 sequence (P22303 32-614): as above

Take `C[C@@H](c1cccc(OC(=O)N[C@H]2C[C@@H]2c2ccccc2)c1)N(C)C` (stereo in doubt) [Compound 2, S-riva-tranylcypromine]: the “BuChE I (%) 10 μM” value at BuChE (10 μM) amounted to 67%. For the same molecule, the “TIMTD/ MED” value in series [1] is on record as 3. Regarding `CCN(C)C(=O)Oc1cccc([C@H](C)N(C)C)c1` [Compound 1, S-rivastigmine, reference compound], the “BuChE I (%) 10 μM” value at BuChE came out at 100%.

In the case of `C[C@@H](c1cccc(OC(=O)N2CCN(C3=Nc4ccccc4Oc4ccc(Cl)cc43)CC2)c1)N(C)C` [Compound 3, S-riva-amoxapine], the “BuChE I (%) 10 μM” value at BuChE (10 μM) was 6%. For the same molecule, in series [1], the “TIMTD/ MED” value was “≧10”. On the same counts, the results for `C[C@@H](c1cccc(OC(=O)N(C)CCCN2c3ccccc3CCc3ccccc32)c1)N(C)C` [Compound 4A, S-riva-desipramine] are 60% and “≧30”. For the molecule `Cc1ccccc1O[C@H](CCN(C)C(=O)Oc1cccc([C@H](C)N(C)C)c1)c1ccccc1` [Compound 5, S-riva-atomoxetine], the “BuChE I (%) 10 μM” value at BuChE (10 μM) is recorded as 14%. As for `C[C@@H](c1cccc(OC(=O)N(C)CCC=C2c3ccccc3CCc3ccccc32)c1)N(C)C` [Compound 5A, S-riva-nortriptyline], the “BuChE I (%) 10 μM” value on BuChE (10 μM) was found to be 55%. The minimal effective dose in series [2] is at most 1 mg/kg. Besides, in series [1], the “TIMTD/ MED” value is reported as “≧100”. For the same molecule, the “Max Tolerated Dose” value in series [1] (rats, s.c., test doses given in mg/kg) is “≧100”. Take `C[C@@H](c1cccc(OC(=O)N(C)CCCC2c3ccccc3C=Cc3ccccc32)c1)N(C)C` [Compound 6A, S-riva-protriptyline]: the “BuChE I (%) 10 μM” value on BuChE (10 μM) is reported as 53%. In addition, the “TIMTD/ MED” value in series [1] is given as over 1. With `C[C@H](Cc1ccccc1)N(C)C(=O)Oc1cccc([C@H](C)N(C)C)c1` [Compound 7, S-riva-l-methamphetamine], the “generalization to methamphetamine (lever selection)” value in the series with rats (rats trained to discriminate methamphetamine from vehicle, compound 7 at 0.01-3.2 mg/kg i.p., FIG. 1 top) is on record as “lack of stimulus generalization to methamphetamine”. Further, the behavioral disruption entry in the series with rats (rats, 1.0 mg/kg of compound 7, FIG. 2 lower) is on record as “without behavioral disruption”. In addition, in the series on rats (rats, compound 7 at 0.01-3.2 mg/kg i.p., FIG. 1 lower), the rate of responding result was “markedly decreased reponse rates”. As to `C[C@@H](c1cccc(OC(=O)N(C)CCC(Oc2ccc(C(F)(F)F)cc2)c2ccccc2)c1)N(C)C` (stereo partly shown) [Compound 7A, S-riva-fluoxetine], on BuChE (10 μM), the “BuChE I (%) 10 μM” value is given as 15%. For the same molecule, the “TIMTD/ MED” value in series [1] was “≧30”. As to `COCCCC/C(=N\OCCNC(=O)Oc1cccc([C@H](C)N(C)C)c1)c1ccc(C(F)(F)F)cc1` [Compound 8A, S-riva-fluvoxamine], at BuChE (10 μM), the “BuChE I (%) 10 μM” value was determined as 6%. For `C[C@@H](c1cccc(OC(=O)N2CC[C@@H](c3ccc(F)cc3)[C@H](COc3ccc4c(c3)OCO4)C2)c1)N(C)C` [Compound 9A, S-riva-paroxetine], the “BuChE I (%) 10 μM” value at BuChE (10 μM) came out at 4%.

`C[C@@H](c1cccc(OC(=O)N(C)CC[C@H](Oc2cccc3ccccc23)c2cccs2)c1)N(C)C` [Compound 10A, S-riva-duloxetine]: on BuChE (10 μM), the “BuChE I (%) 10 μM” value amounted to 36%.

Consider `C#CCN(C(=O)Oc1cccc([C@H](C)N(C)C)c1)[C@H](C)Cc1ccccc1` [Compound 11, S-riva-desmethylselegiline], for which the “BuChE I (%) 10 μM” value at BuChE (10 μM) is 17%. Regarding `C[C@@H](c1cccc(OC(=O)N(C)[C@@H](C)Cc2ccccc2)c1)N(C)C` [Compound 13, S-riva-d-methamphetamine], in series [3], the pIC50 was 5.26. For `COc1ccccc1CC(C)N(C)C(=O)Oc1cccc([C@H](C)N(C)C)c1` (stereo partly shown) [Compound 15, S-riva-methoxyphenamine], the “BuChE I (%) 10 μM” value at BuChE (10 μM) is on record as 30%.

For `CC(CC1CCCCC1)N(C)C(=O)Oc1cccc([C@H](C)N(C)C)c1` (stereo partly shown) [Compound 16, S-riva-propylhexedrine], in series [1], the “TIMTD/ MED” value was “≧10”. Turning to `C#CCN(C(=O)Oc1cccc([C@@H](C)N(C)C)c1)[C@H](C)Cc1ccccc1` [Compound 17, R-riva-desmethylselegiline], the “BuChE I (%) 10 μM” value at BuChE (10 μM) stood at 12%. Regarding `C#CCN(C(=O)Oc1ccc2c(c1)[C@]1(C)CCN(C)[C@@H]1N2C)[C@H](C)Cc1ccccc1` [Compound 18, Physo-desmethylselegiline], at BuChE (10 μM), the “BuChE I (%) 10 μM” value was 8%.

For `C[C@@H](Cc1ccccc1)NC(=O)Oc1cccc([C@H](C)N(C)C)c1` [Compound 20, S-riva-d-amphetamine], the pIC50 in series [3] was 6.35. `CN1CC[C@@]2(C)c3cc(OC(=O)Nc4ccccc4)ccc3N(C)[C@@H]12` [Phenserine, reference compound]: in series [4], the “BuChEI (%) 1 μM” value was 93%. Also, the “BuChE I (%) 10 μM” value on BuChE is reported as 42%.
